In DBAASP:
Values after ≈ are worked out from the molar mass of the structure shown. One block for each molecule: values may come before it.

How the values were obtained:
Test in all cases: ≥ marks a high value that may be exact or a test limit, other limits are often not marked, values filed in µg/mL are converted to µM
[1] = tested on: Vibrio scophthalmi ZS1
[2] = tested on: Vibrio ichthyoenteri 1A00057
[3] = tested on: Micrococcus luteus 1D00051
[4] = tested on: Vibrio vulnificus 1H00066
[5] = tested on: Staphylococcus aureus 1D00101
[6] = tested on: Vibrio litoralis H1
[7] = tested on: Candida albicans
[8] = tested on: Staphylococcus aureus
[9] = tested on: Candida tropicalis
[10] = tested on: Acinetobacter baumannii
[11] = tested on: Candida glabrata
[12] = tested on: Staphylococcus aureus ATCC 25923
[13] = tested on: Pseudomonas aeruginosa ATCC 10662
[14] = tested on: Pseudomonas aeruginosa PAO1
[15] = tested on: Acinetobacter baumannii B2367-12
[16] = tested on: Klebsiella pneumoniae ATCC 13883
[17] = tested on: Enterobacter cloacae B2366-12
[18] = tested on: Enterococcus faecium ATCC 51559
[19] = tested on: Staphylococcus aureus USA 300
[20] = tested on: Xanthomonas citri
[21] = tested on: Methylobacterium sp.
[22] = tested on: Agrobacterium tumefaciens GV3101
[23] = tested on: Sinorhizobium meliloti USDA 1002
[24] = tested on: Escherichia coli C600
[25] = tested on: Escherichia coli BL21(DE3)
[26] = tested on: Staphylococcus aureus 209P
[27] = tested on: Bacillus megaterium VKM41
[28] = tested on: Micrococcus luteus VKM B-1314
[29] = tested on: Escherichia coli ML-35p
[30] = tested on: Staphylococcus aureus ATCC 29213
[31] = tested on: Bacillus subtilis VKM B-886
[32] = tested on: Candida albicans ATCC 90028
[33] = tested on: Pseudomonas aeruginosa ATCC 27853
[34] = tested on: Staphylococcus aureus ATCC 43300
[35] = tested on: Bacillus subtilis ATCC 6051
[36] = tested on: Escherichia coli ATCC 25922
[37] = tested on: Cryptococcus neoformans ATCC 208821
[38] = tested on: Klebsiella pneumoniae ATCC 700603
[39] = tested on: Pseudomonas aeruginosa
[40] = tested on: Klebsiella pneumoniae
[41] = tested on: Klebsiella pneumoniae ATCC BAA-2146
[42] = tested on: Acinetobacter baumannii ATCC 19606

SMILES: CSCC[C@H](NC(=O)[C@H](CCCN=C(N)N)NC(=O)[C@H](Cc1cnc[nH]1)NC(=O)CNC(=O)[C@H](CCCCN)NC(=O)CNC(=O)[C@H](CCC(N)=O)NC(=O)[C@H](CCCN=C(N)N)NC(=O)[C@H](CCCCN)NC(=O)[C@H](Cc1ccc(O)cc1)NC(=O)[C@H](CCCCN)NC(=O)[C@H](CCCCN)NC(=O)CNC(=O)CNC(=O)[C@H](CCCCN)NC(=O)[C@@H](NC(=O)[C@@H](N)CS)C(C)C)C(=O)N[C@@H](CCCN=C(N)N)C(=O)N[C@@H](CCCN=C(N)N)C(=O)N[C@@H](Cc1ccc(O)cc1)C(=O)N[C@@H](CCCN=C(N)N)C(=O)N[C@@H](CC(N)=O)C(=O)N[C@@H](CC(N)=O)C(=O)N[C@@H](Cc1cnc[nH]1)C(=O)O [CVKGGKKYKRQGKGHRMRRYRNNH]
MIC [1]: ≥ 340 µM | MIC [2]: ≥ 85 µM | MIC [3]: 3 µM (≈ 8.88 µg/mL) | MIC [4]: ≥ 170 µM | MIC [5]: 6 µM (≈ 17.8 µg/mL) | MIC [6]: 11 µM (≈ 32.5 µg/mL)

SMILES: CC[C@H](C)[C@H](NC(=O)[C@H](C)NC(=O)[C@H](CCCCN)NC(=O)[C@H](C)NC(=O)CNC(=O)[C@H](CCCN=C(N)N)NC(=O)[C@H](CC(C)C)NC(=O)[C@H](CC(C)C)NC(=O)[C@H](CO)NC(=O)[C@H](CCCN=C(N)N)NC(=O)[C@H](CC(C)C)NC(=O)[C@@H](N)Cc1ccccc1)C(=O)N[C@@H](Cc1ccc(O)cc1)C(=O)N[C@@H](CCCN=C(N)N)C(=O)NCC(=O)N[C@@H](C)C(=O)N[C@@H](CCCN=C(N)N)C(=O)N[C@@H](C)C(=O)NCC(=O)N[C@@H](Cc1c[nH]c2ccccc12)C(=O)N[C@@H](CCCN=C(N)N)C(=O)NCC(N)=O [FLRSLLRGAKAIYRGARAGWRG]
MIC [7]: 2.67 µM (≈ 6.62 µg/mL) | MIC [8]: 1.89 µM (≈ 4.68 µg/mL) | MIC [9]: 2.67 µM (≈ 6.62 µg/mL) | MIC [10]: 7.27 µM (≈ 18 µg/mL) | MIC [11]: ≥ 60.6 µM | MIC [12]: 1.89 µM (≈ 4.68 µg/mL) | MIC [13]: 15.1 µM (≈ 37.5 µg/mL)

SMILES: CC(C)C[C@H](NC(=O)[C@H](CC(N)=O)NC(=O)[C@H](CCCN=C(N)N)NC(=O)[C@@H](CC(C)C)NC(=O)[C@H](Cc1ccccc1)NC(=O)[C@H](CC(=O)O)NC(=O)[C@H](CCCCN)NC(=O)[C@@H](CC(C)C)NC(=O)[C@H](CCCN=C(N)N)NC(=O)[C@H](CCC(N)=O)NC(=O)[C@@H](NC(=O)[C@@H](CC(C)C)NC(=O)[C@H](CCCN=C(N)N)NC(=O)[C@H](CCCCN)NC(=O)[C@H](Cc1ccccc1)NC(=O)CN)C(C)C)C(=O)N[C@H](C(N)=O)C(C)C [GFKRLVQRLKDFLRNLV]
MIC [14]: 100 µM (≈ 210 µg/mL) | MIC [15]: 8.8 µM (≈ 18.5 µg/mL) | MIC [16]: ≥ 100 µM | MIC [17]: 25 µM (≈ 52.5 µg/mL) | MIC [18]: ≥ 100 µM | MIC [19]: ≥ 100 µM

Now from value to molecule:

MIC [20]: ≥ 32 µM | MIC [21]: ≥ 64 µM | MIC [22]: ≥ 64 µM | MIC [23]: ≥ 64 µM
SMILES: CC[C@H](C)[C@H](N)C(=O)N[C@@H](CCC(=O)O)C(=O)N[C@H](C(=O)N[C@@H](Cc1ccccc1)C(=O)N[C@@H](CC(C)C)C(=O)N[C@@H](CCCCN)C(=O)N[C@@H](CCC(N)=O)C(=O)N[C@@H](CC(C)C)C(=O)N[C@@H](CCCN=C(N)N)C(=O)N[C@@H](CO)C(=O)N[C@@H](C)C(=O)N[C@@H](C)C(=O)N[C@@H](CC(N)=O)C(=O)N[C@@H](CCCCN)C(=O)N[C@H](C(=O)N[C@H](C(=O)NCC(=O)N[C@@H](CC(C)C)C(=O)O)C(C)C)[C@@H](C)CC)[C@@H](C)O [IETFLKQLRSAANKIVGL]

MIC [24]: ≥ 64 µM | MIC [25]: ≥ 64 µM | MIC [14]: > 128 µM | MIC [26]: 16 µM (≈ 28.2 µg/mL) | MIC [27]: 16 µM (≈ 28.2 µg/mL) | MIC [10]: ≥ 64 µM | MIC [28]: 16 µM (≈ 28.2 µg/mL) | MIC [29]: ≥ 64 µM | MIC [30]: > 128 µM | MIC [31]: 16 µM (≈ 28.2 µg/mL)
SMILES: CC[C@H](C)[C@H](N)C(=O)N[C@@H](CCCCN)C(=O)N[C@@H](CC(N)=O)C(=O)N[C@@H](C)C(=O)N[C@@H](CCCCN)C(=O)N[C@H](C(=O)N[C@H]1CSSC[C@@H](C(=O)N[C@H](C(=O)N[C@@H](CO)C(=O)N[C@@H](Cc2cnc[nH]2)C(=O)N[C@@H](CCCCN)C(=O)O)C(C)C)NC(=O)[C@H](C(C)C)NC(=O)[C@H](C)NC(=O)[C@H](Cc2ccc(O)cc2)NC(=O)[C@H](C(C)C)NC1=O)C(C)C [IKNAKVCVYAVCVSHK]

MIC [32]: 1.8 µM (≈ 4 µg/mL) | MIC [33]: 0.45 µM (≈ 0.999 µg/mL) | MIC [34]: 1.8 µM (≈ 4 µg/mL) | MIC [35]: 0.0563 µM (≈ 0.125 µg/mL) | MIC [36]: 0.113 µM (≈ 0.25 µg/mL) | MIC [37]: 0.113 µM (≈ 0.25 µg/mL) | MIC [10]: 0.113 µM (≈ 0.25 µg/mL) | MIC [38]: 0.901 µM (≈ 2 µg/mL) | MIC [39]: 1.8 µM (≈ 4 µg/mL) | MIC [40]: 7.21 µM (≈ 16 µg/mL) | MIC [41]: 0.45 µM (≈ 0.999 µg/mL) | MIC [16]: 0.45 µM (≈ 0.999 µg/mL) | MIC [42]: 0.113 µM (≈ 0.25 µg/mL)
SMILES: CC[C@H](C)[C@@H]1NC(=O)CNC(=O)[C@H](CCCN=C(N)N)NC(=O)[C@H](Cc2ccc(O)cc2)NC(=O)[C@@H](NC(=O)[C@@H](NC(=O)[C@H](CCCN=C(N)N)NC(=O)[C@H](Cc2ccccc2)NC(=O)[C@H](CO)NC(=O)[C@H](Cc2c[nH]c3ccccc23)NC(=O)[C@@H](N)CCCCN)C(C)C)CSSC[C@@H](C(=O)N[C@@H](Cc2ccc(O)cc2)C(=O)N[C@@H](CCCN=C(N)N)C(=O)N[C@@H](CCCN=C(N)N)C(=O)N[C@@H](C)C(=O)N[C@@H](CCCN=C(N)N)C(=O)O)NC1=O [KWSFRVCYRGICYRRAR]
